Key:
[1] = test system: Histone H2AX (γH2AX); experiment: γH2AX formation in human fibroblasts by immunofluorescent microscopy; format: cell-based; settings: 48 hours
Description: Phosphorylation of Histone H2AX (forming γH2AX) is a marker for DNA damage in many settings and is also observed at telomeres when cells enter senescence. […] In both experiments, cells were incubated for 48 hours in the presence of SPOX-1 or 11mer T-oligo before processing for immunofluorescent microscopy.

[2] = test system: ataxia telanglectasia mutated (ATM) kinase; experiment: phosphorylation of ATM at serine 1981 in MM-AN cells, Western blot; format: cell-based, human; settings: 40 μM, 48 hours
Description: Phosphorylated ATM in turn phosphorylates, and thus activates, p53. MM-AN cells were treated with diluent (medium or DMSO) alone, 40 μM of […] or 40 μM of SPOX-2 for 48 hours then collected and analyzed by Western blot using an antibody against ATM phosphoserine 1981.

[3] = test system: WRN− U20S human osteosarcoma cells; experiment: apoptosis of WRN− U20S cells by FACS analysis; format: cell-based; settings: 96 hours
Description: (§1) Cultures of WRN+ and WRN− U20S human osteosarcoma cells were treated with either diluent (water or DMSO) alone, 16mer T-oligo (SEQ ID NO: 2) or SPOX-1 for 96 hours, then collected and processed for FACS analysis. One concentration of the 16mer T-oligo was tested, 20 μM, and three concentrations of SPOX-1 were tested, 10 μM, 40 μM and 80 μM.

[4] = test system: human fibroblasts; experiment: growth of newborn fibroblast cells; format: cell-based; settings: 40 μM; growth determined 2 and 4 days after plating
Description: The effect of SPOX compounds on growth of human fibroblasts was tested using cultures of newborn fibroblast cells. Briefly, 20,000 cells were plated per 35 mm dish. Medium containing either diluent (dimethyl sulfoxide (DMSO)) alone, SPOX-1 (40 μM) SPOX-2 (40 μM) or 11mer T-oligo (SEQ ID NO:1) was introduced at 96 hours and growth was determined 2 and 4 days after plating.

[5] = test system: MM-AN human melanoma cells; experiment: apoptosis of MM-AN melanoma cells by FACS analysis (propidium iodide); format: cell-based; settings: 10 μM, 40 μM and 80 μM
Description: Cultures of MM-AN human melanoma cells were treated with diluent (water or DMSO) alone, a T-oligo (16mer: 5′ GTTAGGGTTAGGGTTA 3′; SEQ ID NO: 2), SPOX-1, or SPOX-2 for 96 hours, then collected and processed for FACS analysis. One concentration of the T-oligo (20 μM) and three concentrations of each SPOX compound (10 μM, 40 μM and 80 μM) were tested. Each bar is the mean of triplicate dishes +/− standard error of the mean (SEM). FACS profiles are depicted at the top of the figure.
Cultures of MM-AN human melanoma cells were treated with diluent (water or DMSO) alone, 16mer T-oligo (SEQ ID NO: 2), SPOX-337, SPOX-338 or SPOX-343 for 72 hours, then collected and processed for FACS analysis. One concentration of the T-oligo (20 μM) and three concentrations of each SPOX compound (10 μM, 40 μM and 80 μM) were tested.

[6] = test system: MM-AN human melanoma cells; experiment: growth of MM-AN melanoma cells; format: cell-based; settings: 40 μM; 2, 3 and 4 days after treatment
Description: (§2) The effect of SPOX compounds on growth of human melanoma cells was tested using cultures of MM-AN cells. Briefly, 20,000 MM-AN cells were plated per 35 mm dish. Medium containing either diluent (DMSO) alone, SPOX-1 or SPOX-2 (40 μM) was introduced at 96 hours and growth was determined 2, 3 and 4 days after treatment.

[7] = test system: MCF-7 cells; experiment: growth of MCF-7 breast cancer cells; format: cell-based, human; settings: for growth of MCF-7 cells: 10 μM; for growth of MCF-7 cells / growth of MCF-7 cells at higher concentrations: 40 μM and 80 μM; for growth of MCF-7 cells at higher concentrations: 8 days after plating; for growth of MCF-7 cells at highest concentration: 80 μM, 3 days after plating; for growth arrest of malignant cells: summary statement
Description: The effect of SPOX compounds on growth and apoptosis of human breast cancer cells was tested using cultures of MCF-7 cells. The effect on cell growth was tested by plating 20,000 cells per 35 mm dish. Medium containing either diluent alone (DMSO), SPOX-1 or SPOX-2 (10 μM, 40 μM and 80 μM) was introduced at 96 hours and growth was determined 8 days after plating.
The effect of SPOX compounds on growth of human breast cancer cells was tested using cultures of MCF-7 cells. The effect on cell growth was tested by plating 20,000 cells per 35 mm dish. Medium containing either diluent (water or DMSO) alone, SPOX-337, SPOX-388, SPOX-343 (10 μM, 40 μM and 80 μM) or 16mer T-oligo (SEQ ID NO: 2) was introduced at 96 hours and growth was determined 3 days after plating.

[8] = test system: Histone H2AX (γH2AX); experiment: γH2AX formation in MCF-7 cells, western blot; format: cell-based, human; settings: compared with 16mer T-oligo
Description: (§3) Phosphorylation of Histone H2AX (forming γH2AX) was assessed as a marker for DNA damage. Apoptosis was measured by western blot analysis to show cleavage of poly(ADP-ribose) polymerase (PARP). PARP is a substrate for caspase-3, an enzyme that mediates apoptosis, and thus cleavage of PARP by caspase-3 is indicative of ongoing apoptosis. […] Thus, both SPOX compounds induce apoptosis and formation of γH2AX, as a marker of DNA damage-like responses, in the MCF-7 breast cancer cell line.

[9] = test system: poly(ADP-ribose) polymerase (PARP); experiment: PARP cleavage in MCF-7 cells, western blot; format: cell-based, human; settings: compared with TNF-α
Description: as §3

[10] = test system: WRN+ U20S human osteosarcoma cells; experiment: apoptosis of WRN+ U20S cells by FACS analysis; format: cell-based; settings: 96 hours; 10 μM, 40 μM and 80 μM
Description: as §1

[11] = test system: human skin explants; experiment: melanogenesis in human skin explants (Fontana Masson stain, image analysis); format: cell-based; settings: 80 uM; 24, 48 and 72 hours; positive control pTT 100 uM
Description: Normal facial skin removed from a person at the time of facelift was carefully cut into fragments approximately 5×5 mm. The fragments were placed in tissue culture dishes in standard culture medium, under conditions known to maintain the fragments in good condition, responsive to physiologic stimuli, for at least one week (Arad et al, FASEB J. Jul. 28, 2006. [Epub]). Fragments were arranged with at least 3 per 35 mm dish and after 48 hours, one dish each was provided with fresh medium containing diluent (DMSO) alone (Dil) or SPOX-1 or SPOX-2 each at 80 uM or thymidine dinucleotide (pTT) at 100 uM as a positive control. […] The 72 hour diluent (Dil) control sample was judged to be bacterially contaminated, affecting both the overall histology and the apparent melanin content, which based on earlier experiments would be expected to be the same as at 24 and 48 hours. All other samples were believed to be healthy and to accurately represent the response to treatment.

[12] = test system: survivin; experiment: survivin expression in H460 lung cancer cells; format: cell-based, human; settings: for survivin expression at 80 μM: 24 hours; for survivin expression / survivin expression at 40 μM: 2 days, 40 μM; for survivin expression: 20 μM
Description: The ability of the SPOX compounds to inhibit expression of survivin, a member of the Inhibitor of Apoptosis Protein (IAP) family, was determined by treating H460 human lung cancer cells for two days with diluent (DMSO) alone, SPOX-1 (20 μM, 40 μM), SPOX-2 (20 μM, 40 μM) and T-oligo (16mer: 5′ GGTTGGTTGGTTGGTT 3′; SEQ ID NO: 3) (20 μM, 40 μM) or for 24 hours with SPOX-1 (80 μM) or SPOX-2 (80 μM). Following treatment, cells were collected, counted, and assayed for survivin expression. The results are depicted in FIG. 15.

[13] = test system: H460 human lung cancer cells; experiment: growth of H460 lung cancer cells; format: cell-based; settings: 40 μM; 1, 2, 3 and 4 days after plating
Description: as §2, with “lung cancer” for “melanoma”, “H460” for “MM-AN”, “20,000H460” for “20,000 MM-AN”, “determined 1,” for “determined”, “plating.” for “treatment.”

[14] = test system: p53; experiment: p53 level in human fibroblasts, Western blot; format: cell-based; settings: 48 hours, compared with diluent alone
Description: (§4) Human fibroblasts were treated with diluent (water or DMSO) alone, SPOX-1, SPOX-2, or 16mer T-oligo (SEQ ID NO: 2) for 48 hours after which total cellular proteins were harvested and Western blot analysis performed using anti-p53 and anti-p21 antibodies.

[15] = test system: p21; experiment: p21 level in human fibroblasts, Western blot; format: cell-based; settings: 48 hours, compared with diluent alone
Description: as §4

[16] = growth determined 8 days after plating
[17] = growth determined 3 days after plating

11mer T-oligo: telomere homolog oligonucleotide, 11mer: 5′ GTTAGGGTTAG 3′; SEQ ID NO: 1 (listed as DNA, further chemistry not given here) [reference compound]
γH2AX expression [1]: induce γH2AX expression
phosphorylation of ATM at serine 1981 [2]: induce phosphorylation of ATM

16mer T-oligo (SEQ ID NO: 2): telomere homolog oligonucleotide, 16mer: 5′ GTTAGGGTTAGGGTTA 3′; SEQ ID NO: 2 (listed as DNA, further chemistry not given here) [reference compound]
induction of apoptosis in WRN− versus WRN+ U20S cells ([3]; 20 μM): less effective in inducing apoptosis in WRN− than in U20S cells with intact WRN

C=CCOC(=O)C1C2C(=O)OC(c3ccccc3)C(c3ccccc3)N2C(c2ccc(O)cc2)C12C(=O)Nc1ccc(I)cc12 (centres unmarked) [SPOX-1]
γH2AX expression [1]: induce γH2AX expression
growth of human fibroblast cells [4]: inhibited growth
induction of apoptosis ([5]; 96 hours): induced apoptosis with SPOX-1 having a greater effect
growth of MM-AN cells [6]: inhibited growth
growth of MCF-7 cells [7, 16]: inhibited growth of MCF-7 cells in a dose-dependent manner
growth of MCF-7 cells at higher concentrations [7]: nearly complete inhibition of growth
phosphorylation of histone H2AX (γH2AX) [8]: cause phosphorylation of the histone protein H2AX
PARP cleavage [9]: cause PARP cleavage
induction of apoptosis in WRN+ U20S cells [10]: induced apoptosis in WRN+ U20S cells in a dose-dependent manner
induction of apoptosis in WRN− U20S cells ([3]; 40 μM and 80 μM): apoptosis was also seen
melanogenesis (tanning) in human skin [11]: caused tanning, comparable to pTT
survivin expression at 80 μM [12]: reduced survivin expression to nearly undetectable levels
survivin expression [12]: dose-dependent reduction in survivin expression
survivin expression at 40 μM [12]: nearly undetectable
growth of H460 cells [13]: inhibited growth
level of p53 [14]: induced the level of p53
level of p21 [15]: induced the level of the p53-dependent downstream effector protein p21 to a similar degree as 16mer T-oligo

C=CCOC(=O)C1C2C(=O)OC(c3ccccc3)C(c3ccccc3)N2C(c2ccc(O)cc2)C12C(=O)Nc1ccc(I)cc12 (centres unmarked) [SPOX-2]
growth of human fibroblast cells [4]: inhibited growth
induction of apoptosis ([5]; 96 hours): induced apoptosis
growth of MM-AN cells [6]: inhibited growth
phosphorylation of ATM at serine 1981 [2]: induce phosphorylation of ATM
growth of MCF-7 cells [7, 16]: inhibited growth of MCF-7 cells in a dose-dependent manner
growth of MCF-7 cells at higher concentrations [7]: nearly complete inhibition of growth
phosphorylation of histone H2AX (γH2AX) [8]: cause phosphorylation of the histone protein H2AX
PARP cleavage [9]: cause PARP cleavage
melanogenesis (tanning) in human skin [11]: caused tanning, comparable to pTT
survivin expression at 80 μM [12]: reduced survivin expression to nearly undetectable levels
survivin expression [12]: dose-dependent reduction in survivin expression
survivin expression at 40 μM [12]: nearly undetectable
growth of H460 cells [13]: inhibited growth
level of p53 [14]: induced the level of p53
level of p21 [15]: induced the level of the p53-dependent downstream effector protein p21 to a similar degree as 16mer T-oligo

C=CCOC(=O)C1C2C(=O)OC(c3ccccc3)C(c3ccccc3)N2C(c2ccc(OCCO)cc2)C12C(=O)Nc1ccc(I)cc12 (centres unmarked) [SPOX-337]
induction of apoptosis ([5]; 72 hours): induced apoptosis with SPOX-337 and SPOX-343 having greatest effect
growth of MCF-7 cells [7, 17]: inhibited growth of MCF-7 cells in a dose-dependent manner
growth of MCF-7 cells at highest concentration [7]: nearly complete inhibition of growth
growth arrest of malignant cells [7]: retain the capability of arresting the growth of malignant cells

C=CCOC(=O)C1C2C(=O)OC(c3ccccc3)C(c3ccccc3)N2C(c2ccc(OCCO)cc2)C12C(=O)Nc1ccccc12 (centres unmarked) [SPOX-338]
induction of apoptosis ([5]; 72 hours): induced apoptosis
growth of MCF-7 cells [7, 17]: inhibited growth of MCF-7 cells in a dose-dependent manner
growth of MCF-7 cells at highest concentration [7]: nearly complete inhibition of growth
growth arrest of malignant cells [7]: retain the capability of arresting the growth of malignant cells

C=CCOC(=O)C1C2C(=O)OC(c3ccccc3)C(c3ccccc3)N2C(c2ccc(O)cc2)C12C(=O)Nc1ccccc12 (centres unmarked) [SPOX-343]
induction of apoptosis ([5]; 72 hours): induced apoptosis with SPOX-337 and SPOX-343 having greatest effect
growth of MCF-7 cells [7, 17]: inhibited growth of MCF-7 cells in a dose-dependent manner
growth of MCF-7 cells at highest concentration [7]: nearly complete inhibition of growth
growth arrest of malignant cells [7]: retain the capability of arresting the growth of malignant cells

Source: patent publication US20100093716A1, “THERAPEUTIC METHODS USING WRN BINDING MOLECULES” (TRUSTEES OF BOSTON UNIVERSITY AND PRESIDENT AND FELLOWS OF …, priority 2006, published 2010)
